Results from patent publication US20120302566A1, “INDANYLOXYDIHYDROBENZOFURANYLACETIC ACIDS” (BOEHRINGER INGELHEIM INTERNATIONAL GMBH, priority 2010, published 2012).

The compounds below were run against human GPR40 receptor (Homo sapiens, UniProt O14842) (assay: IP1 accumulation measurements using the IPOne assay system). Conditions: IP1 accumulation (IPOne HTRF), 1 hour stimulation; 1321N1 cells stably expressing human GPR40; read-out: EC50 values on GPR40 determined as described in (B).
Sequence of human GPR40 receptor (O14842 whole entry): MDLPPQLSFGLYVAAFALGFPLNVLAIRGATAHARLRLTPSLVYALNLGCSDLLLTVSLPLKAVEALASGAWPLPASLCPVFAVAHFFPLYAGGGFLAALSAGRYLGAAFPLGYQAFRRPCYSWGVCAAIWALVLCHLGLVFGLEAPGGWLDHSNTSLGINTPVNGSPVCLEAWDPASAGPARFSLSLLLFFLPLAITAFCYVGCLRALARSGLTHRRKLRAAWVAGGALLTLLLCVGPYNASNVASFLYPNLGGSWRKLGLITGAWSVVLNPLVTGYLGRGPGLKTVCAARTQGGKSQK
Assay type: cell-based
Experimental: (B) IP1 accumulation measurements using the IPOne assay system—1321N1 cells stably expressing human GPR40 receptor (Euroscreen, Belgium) were seeded 24 h before the assay in black clear-bottom collagen-coated 384-well plates in culture medium containing 10% FCS, 1% Na-Pyruvate and 400 μg/mL G418. IP1 is assayed according to the Manufacturer's description (Cisbio Bioassays, France). In brief, the assay is started by substitution of the culture medium by stimulation buffer (Hepes 10 mM, CaCl2 1 mM, MgCl2 0.5 mM, KCl 4.2 mM, NaCl 146 mM and glucose 5.5 mM, pH 7.4) without LiCl. Cells are stimulated for 1 hour at 37°, 10% CO2 by addition of the compounds that were diluted in stimulation buffer containing LiCl yielding a final LiCl concentration of 50 mM. Assays are stopped by adding HTRF-conjugates (IP1-d2 and Anti-IP1 cryptate Tb) and lysis buffer, provided by the manufacturer. After an incubation time of 1 hour at room temperature plates are measured using an EnVision™, Perkin Elmer.
Work on COC(c1cccc2c1CC[C@H]2Oc1ccc2c(c1)OC[C@H]2CC(=O)O)C(C)(C)C (mixture of isomers) [Example 27, {(S)-6-[(R)-4-(1-Methoxy-2,2-dimethyl-propyl)-indan-1-yloxy]-2,3-dihydro-benzofuran-3-yl}-acetic acid] yielded an EC50 of 23 nM. For Cc1c(O[C@@H]2CCc3c2cccc3C(F)(F)F)ccc2c1OCC2CC(=O)O (mixture of isomers) [Example 105, {7-Methyl-6-[(R)-4-trifluoromethyl-indan-1-yloxy]-2,3-dihydro-benzofuran-3-yl}-acetic acid], the EC50 was 4250 nM. For Cc1cc2c(cc1O[C@@H]1CCc3c1cccc3C(F)(F)F)OCC2CC(=O)O (mixture of isomers) [Example 107, {5-Methyl-6-[(R)-4-trifluoromethyl-indan-1-yloxy]-2,3-dihydro-benzofuran-3-yl}-acetic acid], the EC50 was 6050 nM. CO[C@@H](c1cccc2c1CC[C@H]2Oc1ccc2c(c1)OC[C@H]2CC(=O)O)C(C)(C)C (single isomer, unassigned) [Example 28, {(S)-6-[(R)-4-((R)*-1-Methoxy-2,2-dimethyl-propyl)-indan-1-yloxy]-2,3-dihydro-benzofuran-3-yl}-acetic acid] showed an EC50 of 25 nM. For CO[C@H](c1cccc2c1CC[C@H]2Oc1ccc2c(c1)OC[C@H]2CC(=O)O)C(C)(C)C (single isomer, unassigned) [Example 29, {(S)-6-[(R)-4-((S)*-1-Methoxy-2,2-dimethyl-propyl)-indan-1-yloxy]-2,3-dihydro-benzofuran-3-yl}-acetic acid], the EC50 was 14 nM. Compound CO[C@H](c1cccc2c1CC[C@H]2Oc1ccc2c(c1)OC[C@H]2CC(=O)O)C(F)(F)F (single isomer, unassigned) [Example 38, {(S)-6-[(R)-4-((R)*-2,2,2-Trifluoro-1-methoxy-ethyl)-indan-1-yloxy]-2,3-dihydro-benzofuran-3-yl}-acetic acid] has an EC50 of 131 nM. For CO[C@@H](c1cccc2c1CC[C@H]2Oc1ccc2c(c1)OC[C@H]2CC(=O)O)C(F)(F)F (single isomer, unassigned) [Example 39, {(S)-6-[(R)-4-((S)*-2,2,2-Trifluoro-1-methoxy-ethyl)-indan-1-yloxy]-2,3-dihydro-benzofuran-3-yl}-acetic acid], the EC50 was 262 nM. CC1OC(c2cccc3c2CC[C@H]3Oc2ccc3c(c2)OC[C@H]3CC(=O)O)C1(C)C (single isomer, unassigned) [Example 41] gave an EC50 of 323 nM. CC1OC(c2cccc3c2CC[C@H]3Oc2ccc3c(c2)OC[C@H]3CC(=O)O)C1(C)C (single isomer, unassigned) [Example 42] gave an EC50 of 131 nM. Work on CC1(C)CCCO[C@@H]1c1cccc2c1CC[C@H]2Oc1ccc2c(c1)OC[C@H]2CC(=O)O (single isomer, unassigned) [Example 66] yielded an EC50 of 80 nM. Compound CC1(C)CCCO[C@H]1c1cccc2c1CC[C@H]2Oc1ccc2c(c1)OC[C@H]2CC(=O)O (single isomer, unassigned) [Example 67] has an EC50 of 176 nM. CC1(C)CCC[C@@H]1c1cccc2c1CC[C@H]2Oc1ccc2c(c1)OC[C@H]2CC(=O)O (single isomer, unassigned) [Example 75] showed an EC50 of 39 nM. CC1(C)CCC[C@H]1c1cccc2c1CC[C@H]2Oc1ccc2c(c1)OC[C@H]2CC(=O)O (single isomer, unassigned) [Example 76] showed an EC50 of 95 nM. With O=C(O)C[C@@H]1COc2cc(O[C@@H]3CCc4ccc(C(F)(F)F)cc43)ccc21 [Example 19, {(S)-6-[(R)-6-Trifluoromethyl-indan-1-yloxy]-2,3-dihydro-benzofuran-3-yl}-acetic acid] the EC50 was 5190 nM. Work on O=C(O)C[C@@H]1COc2cc(O[C@@H]3CCc4cc(Cl)ccc43)ccc21 [Example 21, {(S)-6-[(R)-5-Chloro-indan-1-yloxy]-2,3-dihydro-benzofuran-3-yl}-acetic acid] yielded an EC50 of 54 nM. O=C(O)C[C@@H]1COc2cc(O[C@@H]3CCc4cccc(C(F)(F)F)c43)ccc21 [Example 23, {(S)-6-[(R)-7-Trifluoromethyl-indan-1-yloxy]-2,3-dihydro-benzofuran-3-yl}-acetic acid] was tested, and the EC50 was 9120 nM. With O=C(O)C[C@@H]1COc2cc(O[C@@H]3CCc4c(C(F)(F)F)ccc(F)c43)ccc21 [Example 24, {(S)-6-[(R)-7-Fluoro-4-trifluoromethyl-indan-1-yloxy]-2,3-dihydro-benzofuran-3-yl}-acetic acid] the EC50 was 35 nM. Work on O=C(O)C[C@@H]1COc2cc(O[C@@H]3CCc4c(OC(F)(F)F)cccc43)ccc21 [Example 25, {(S)-6-[(R)-4-Trifluoromethoxy-indan-1-yloxy]-2,3-dihydro-benzofuran-3-yl}-acetic acid] yielded an EC50 of 18 nM. Work on Cc1cc2c(c(C(F)(F)F)c1)CC[C@H]2Oc1ccc2c(c1)OC[C@H]2CC(=O)O [Example 26, {(S)-6-[(R)-6-Methyl-4-trifluoromethyl-indan-1-yloxy]-2,3-dihydro-benzofuran-3-yl}-acetic acid] yielded an EC50 of 19 nM. Cc1ccc(C(F)(F)F)c2c1[C@H](Oc1ccc3c(c1)OC[C@H]3CC(=O)O)CC2 [Example 30, {(S)-6-[(R)-7-Methyl-4-trifluoromethyl-indan-1-yloxy]-2,3-dihydro-benzofuran-3-yl}-acetic acid] gave an EC50 of 302 nM. Compound O=C(O)C[C@@H]1COc2cc(O[C@@H]3CCc4c(C5CC5)cccc43)ccc21 [Example 31, {(S)-6-[(R)-4-Cyclopropyl-indan-1-yloxy]-2,3-dihydro-benzofuran-3-yl}-acetic acid] has an EC50 of 168 nM. CC(C)c1cccc2c1CC[C@H]2Oc1ccc2c(c1)OC[C@H]2CC(=O)O [Example 32, {(S)-6-[(R)-4-Isopropyl-indan-1-yloxy]-2,3-dihydro-benzofuran-3-yl}-acetic acid] showed an EC50 of 98 nM. Compound Cc1cccc(C)c1-c1cccc2c1CC[C@H]2Oc1ccc2c(c1)OC[C@H]2CC(=O)O [Example 33, {(S)-6-[(R)-4-(2,6-Dimethyl-phenyl)-indan-1-yloxy]-2,3-dihydro-benzofuran-3-yl}-acetic acid] has an EC50 of 4 nM. CC(C)(C)Cc1cccc2c1CC[C@H]2Oc1ccc2c(c1)OC[C@H]2CC(=O)O [Example 34, {(S)-6-[(R)-4-(2,2-Dimethyl-propyl)-indan-1-yloxy]-2,3-dihydro-benzofuran-3-yl}-acetic acid] showed an EC50 of 13 nM. Work on CC(C)c1ccccc1-c1cccc2c1CC[C@H]2Oc1ccc2c(c1)OC[C@H]2CC(=O)O [Example 35, {(S)-6-[(R)-4-(2-Isopropyl-phenyl)-indan-1-yloxy]-2,3-dihydro-benzofuran-3-yl}-acetic acid] yielded an EC50 of 4 nM. In the case of Cc1ccc2c(c1C(F)(F)F)CC[C@H]2Oc1ccc2c(c1)OC[C@H]2CC(=O)O [Example 36, {(S)-6-[(R)-5-Methyl-4-trifluoromethyl-indan-1-yloxy]-2,3-dihydro-benzofuran-3-yl}-acetic acid], the EC50 is reported as 19 nM. O=C(O)C[C@@H]1COc2cc(O[C@@H]3CCc4c3ccc(F)c4F)ccc21 [Example 37, {(S)-6-[(R)-4,5-Difluoro-indan-1-yloxy]-2,3-dihydro-benzofuran-3-yl}-acetic acid] showed an EC50 of 78 nM. In the case of CC1(C)CCC=C1c1cccc2c1CC[C@H]2Oc1ccc2c(c1)OC[C@H]2CC(=O)O [Example 40, {(S)-6-[(R)-4-(5,5-Dimethyl-cyclopent-1-enyl)-indan-1-yloxy]-2,3-dihydro-benzofuran-3-yl}-acetic acid], the EC50 is reported as 13 nM. For O=C(O)C[C@@H]1COc2cc(OC3CCc4ccccc43)ccc21 (stereo partly drawn) [Example 43], the EC50 was 420 nM. Compound O=C(O)C[C@@H]1COc2cc(O[C@@H]3CCc4c3ccc(F)c4Cl)ccc21 [Example 44, {(S)-6-[(R)-4-Chloro-5-fluoro-indan-1-yloxy]-2,3-dihydro-benzofuran-3-yl}-acetic acid] has an EC50 of 25 nM. Work on N#Cc1cccnc1-c1cccc2c1CC[C@H]2Oc1ccc2c(c1)OC[C@H]2CC(=O)O [Example 46, {(S)-6-[(R)-4-(3-Cyano-pyridin-2-yl)-indan-1-yloxy]-2,3-dihydro-benzofuran-3-yl}-acetic acid] yielded an EC50 of 982 nM. O=C(O)C[C@@H]1COc2cc(O[C@@H]3CCc4c(C5=CCCC56CCOCC6)cccc43)ccc21 [Example 47, {(S)-6-[(R)-4-(8-Oxa-spiro[4.5]dec-1-en-1-yl)-indan-1-yloxy]-2,3-dihydro-benzofuran-3-yl}-acetic acid] showed an EC50 of 71 nM. CC1=C(c2cccc3c2CC[C@H]3Oc2ccc3c(c2)OC[C@H]3CC(=O)O)C(C)(C)CCC1 [Example 48, {(S)-6-[(R)-4-(2,6,6-Trimethyl-cyclohex-1-enyl)-indan-1-yloxy]-2,3-dihydro-benzofuran-3-yl}-acetic acid] gave an EC50 of 16 nM. In the case of Cc1nn(C)c(C)c1-c1cccc2c1CC[C@H]2Oc1ccc2c(c1)OC[C@H]2CC(=O)O [Example 49, {(S)-6-[(R)-4-(1,3,5-Trimethyl-1H-pyrazol-4-yl)-indan-1-yloxy]-2,3-dihydro-benzofuran-3-yl}-acetic acid], the EC50 is reported as 1910 nM. O=C(O)C[C@@H]1COc2cc(O[C@H]3CCc4ccc(C(F)(F)F)cc43)ccc21 [Example 50, {(S)-6-[(S)-6-Trifluoromethyl-indan-1-yloxy]-2,3-dihydro-benzofuran-3-yl]-acetic acid] gave an EC50 of 2970 nM. Work on O=C(O)C[C@@H]1COc2cc(O[C@@H]3CCc4c3cccc4-n3ccccc3=O)ccc21 [Example 51, {(S)-6-[(R)-4-(2-Oxo-2H-pyridin-1-yl)-indan-1-yloxy]-2,3-dihydro-benzofuran-3-yl}-acetic acid] yielded an EC50 of 9670 nM.
